Test results: US20210127673A1, “HERBICIDES” (SYNGENTA PARTICIPATIONS AG, priority 2016, published 2021)

Key:
Format in all cases: in vivo
Details in all cases: evaluated after 13 days
[1] = test system: Triticum aestivium (TRZAW); assay: Pre-emergence herbicidal activity, Triticum aestivium; parameters: key: 5=total damage to plant; 0=no damage to plant
Summary of the method: (§1)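 Pots of seeds were sprayed one day after sowing (pre-emergence) with compound in acetone/water (50:50) plus 0.5% Tween 20, then grown in a glasshouse at 24/16 °C day/night, 14 h light, 65% humidity. Damage scored 0–5 (5 = total damage) after 13 days.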

Avena fatua (AVEFA) [2] = assay: Pre-emergence herbicidal activity, Avena fatua; parameters: key: 5=total damage to plant; 0=no damage to plant
Summary of the method: as §1

[3] = test system: Alopecurus myosuroides (ALOMY); assay: Pre-emergence herbicidal activity, Alopecurus myosuroides; parameters: key: 5=total damage to plant; 0=no damage to plant
Summary of the method: as §1

[4] = test system: Echinochloa crus-galli (ECHCG); assay: Pre-emergence herbicidal activity, Echinochloa crus-galli
Summary of the method: as §1

Lolium perenne (LOLPE) [5] = assay: Pre-emergence herbicidal activity, Lolium perenne; parameters: key: 5=total damage to plant; 0=no damage to plant
Summary of the method: as §1

Setaria faberi (SETFA) [6] = assay: Pre-emergence herbicidal activity, Setaria faberi; parameters: key: 5=total damage to plant; 0=no damage to plant
Summary of the method: as §1

[7] = test system: Triticum aestivium (TRZAW); assay: Post-emergence herbicidal activity, Triticum aestivium; parameters: key: 5=total damage to plant; 0=no damage to plant
Summary of the method: (§2)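 Scoring runs 0 (no damage) to 5 (total damage), assessed 13 days after treatment. Seedlings 8 days post-sowing received an aqueous spray from acetone/water 50:50 with 0.5% Tween 20, then were kept at 24/16 °C, 14 h light, 65% humidity and watered twice daily.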

Avena fatua (AVEFA) [8] = assay: Post-emergence herbicidal activity, Avena fatua
Summary of the method: as §2

[9] = test system: Alopecurus myosuroides (ALOMY); assay: Post-emergence herbicidal activity, Alopecurus myosuroides; parameters: key: 5=total damage to plant; 0=no damage to plant
Summary of the method: as §2

[10] = test system: Echinochloa crus-galli (ECHCG); assay: Post-emergence herbicidal activity, Echinochloa crus-galli; parameters: key: 5=total damage to plant; 0=no damage to plant
Summary of the method: as §2

Lolium perenne (LOLPE) [11] = assay: Post-emergence herbicidal activity, Lolium perenne
Summary of the method: as §2

Setaria faberi (SETFA) [12] = assay: Post-emergence herbicidal activity, Setaria faberi; parameters: key: 5=total damage to plant; 0=no damage to plant
Summary of the method: as §2

| Structure (SMILES) | Control of TRAZW after pre-emergence application (score 0-5) ([1]; 1000 g/ha) | Control of AVEFA after pre-emergence application (score 0-5) (Avena fatua (AVEFA) [2]; 1000 g/ha) | Control of ALOMY after pre-emergence application (score 0-5) ([3]; 1000 g/ha) | Control of ECHCG after pre-emergence application (score 0-5) ([4]; 1000 g/ha) | Control of LOLPE after pre-emergence application (score 0-5) (Lolium perenne (LOLPE) [5]; 1000 g/ha) | Control of SETFA after pre-emergence application (score 0-5) (Setaria faberi (SETFA) [6]; 1000 g/ha) | Control of TRAZW after post-emergence application (score 0-5) ([7]; 1000 g/ha) | Control of AVEFA after post-emergence application (score 0-5) (Avena fatua (AVEFA) [8]; 1000 g/ha) | Control of ALOMY after post-emergence application (score 0-5) ([9]; 1000 g/ha) | Control of ECHCG after post-emergence application (score 0-5) ([10]; 1000 g/ha) | Control of LOLPE after post-emergence application (score 0-5) (Lolium perenne (LOLPE) [11]; 1000 g/ha) | Control of SETFA after post-emergence application (score 0-5) (Setaria faberi (SETFA) [12]; 1000 g/ha) | Control of TRAZW after pre-emergence application (score 0-5) ([1]; 250 g/ha) | Control of AVEFA after pre-emergence application (score 0-5) (Avena fatua (AVEFA) [2]; 250 g/ha) | Control of ALOMY after pre-emergence application (score 0-5) ([3]; 250 g/ha) | Control of ECHCG after pre-emergence application (score 0-5) ([4]; 250 g/ha) | Control of LOLPE after pre-emergence application (score 0-5) (Lolium perenne (LOLPE) [5]; 250 g/ha) | Control of SETFA after pre-emergence application (score 0-5) (Setaria faberi (SETFA) [6]; 250 g/ha) | Control of TRAZW after post-emergence application (score 0-5) ([7]; 250 g/ha) | Control of AVEFA after post-emergence application (score 0-5) (Avena fatua (AVEFA) [8]; 250 g/ha) | further results |
| --- | --- | --- | --- | --- | --- | --- | --- | --- | --- | --- | --- | --- | --- | --- | --- | --- | --- | --- | --- | --- | --- |
| O=C(NCc1ccc(Cl)cc1)Nc1ccc(-c2cncc(F)c2)nc1C(F)(F)F [Compound B38] | 0 | 0 | 0 | 1 | 0 | 3 | 0 | 2 | 0 | 2 | 2 | 4 |  |  |  |  |  |  |  |  |  |
| CC(C)(C)OC(=O)Nc1ccc(-c2cncc(Cl)c2)nc1C(F)(F)F [Compound B6] | 0 | 2 | 1 | 3 | 1 | 5 | 1 | 3 | 1 | 4 | 4 | 5 |  |  |  |  |  |  |  |  |  |
| O=C(NCC1CC1)Nc1ccc(-c2cncc(F)c2)nc1C(F)(F)F [Compound B104] |  |  |  |  |  |  |  |  |  |  |  |  | 0 | 0 | 0 | 2 | 1 | 5 | 0 | 3 | Control of ALOMY after post-emergence application (score 0-5) ([9]; 250 g/ha): 1; Control of ECHCG after post-emergence application (score 0-5) ([10]; 250 g/ha): 3; Control of LOLPE after post-emergence application (score 0-5) (Lolium perenne (LOLPE) [11]; 250 g/ha): 1; Control of SETFA after post-emergence application (score 0-5) (Setaria faberi (SETFA) [12]; 250 g/ha): 5 |
| O=C(Nc1ccccc1)Nc1ccc(-c2cncc(F)c2)nc1C(F)(F)F [Compound B71] | 0 | 0 | 0 | 1 | 0 | 1 | 1 | 2 | 0 | 3 | 2 | 3 |  |  |  |  |  |  |  |  |  |
| CON(C)C(=O)Nc1ccc(-c2cncc(F)c2)nc1C(F)(F)F [Compound B111] | 0 | 2 | 0 | 3 | 0 | 3 | 0 | 2 | 0 | 3 | 1 | 4 |  |  |  |  |  |  |  |  |  |
| O=C(Nc1ccc(-c2cncc(F)c2)nc1C(F)(F)F)OCCC(F)(F)F [Compound B96] |  |  |  |  |  |  |  |  |  |  |  |  | 0 | 1 | 0 | 4 | 1 | 5 | 0 | 3 | Control of ALOMY after post-emergence application (score 0-5) ([9]; 250 g/ha): 0; Control of ECHCG after post-emergence application (score 0-5) ([10]; 250 g/ha): 5; Control of LOLPE after post-emergence application (score 0-5) (Lolium perenne (LOLPE) [11]; 250 g/ha): 2; Control of SETFA after post-emergence application (score 0-5) (Setaria faberi (SETFA) [12]; 250 g/ha): 5 |
